# Laboratory results reported in US20230165846A1, “HETEROCYCLIC GLP-1 AGONISTS” (Gasherbrum Bio, Inc., priority 2020, published 2023).
# Columns and labels:
# GLP-1 Receptor [1] = target: T1, GLP-1 Receptor (Homo sapiens, UniProt P43220); test: GLP-1R agonist cAMP stimulation assay, Method 1 (DiscoverX CHO-K1, enzyme fragment complementation); type: cell-based; settings: CHO-K1 cell line (DiscoverX) stably expressing GLP-1 Receptor; incubation 30 or 60 min at 37° C.; geometric mean where n>=2; read-out: GLP1R cAMP Stimulation DR: EC50 (nM) Method 1
# Experimental: Activation of GLP-1 receptor is known to stimulate cyclic AMP (cAMP) production in cells which indicates primary coupling to the Gas subunit of the G protein heterotrimeric complex.
# Method 1: To optimize functional activity directed toward Gas coupling, a CHO—K1 cell line developed by DiscoverX stably expressing the GLP-1 Receptor was used. Cells expressing GLP-1 receptor were plated in a 384-well microtiter plates and incubated overnight at 37° C. with 5% CO2 to allow the cells to attach and grow. Media was then aspirated from the cells and replaced with 15 uL 2:1 Hanks Balanced Salt Solution (HBSS)/10mM Hepes : cAMP XS+ Ab reagent. Five microliters (5 uL) of previously generated compound sample stocks at 4x final concentration in assay buffer were then added to the cells and allowed to incubate at 37° C. for 30 or 60 minutes.
# After incubation the assay signal was generated using enzyme fragment complementation (EFC). In EFC, the enzyme B-galactosidase is split into two complementary portions (EA and ED). The fragment ED is fused to cAMP and in the assay format competes with endogenous cAMP for binding to a cAMP specific antibody. Activated β—Gal is formed when exogenous EA fragment binds to free ED-cAMP (not bound to cAMP specific antibody). Activated enzyme levels are detected through conversion of β-gal chemiluminescent substrate which generates a detectable luminescence signal and read on standard microtiter plate.
# The methodology for detection of cAMP using EFC requires incubation with 20uL of cAMP XS+ ED/CL lysis cocktail for one hour followed by incubation with 20 uL cAMP XS+ EA reagent for three hours at room temperature. Microplates were read following signal generation with a PerkinElmer Envision instrument utilizing chemiluminescent signal detection. Compound activity was analyzed using CBIS data analysis suite (ChemInnovation, CA). Percentage activity was calculated using the following formula:
# (§1) %Activity = 100% x (mean RLU of test sample - mean RLU of vehicle control) / (mean RLU of MAX control - mean RLU of vehicle control))
# (§2) This is done to account for the lognormal distribution of multiple estimates of EC50 values. In practice geometric mean is calculated by first generating log values of EC50, averaging replicates and then calculating the antilog of the average.
# GLP-1 Receptor [2] = target: T1, GLP-1 Receptor; test: GLP-1R agonist cAMP stimulation assay, Method 2 (HDB HEK293/GLP1R/CRE-LUC, Cisbio cAMP dynamic 2 kit); type: cell-based; settings: HEK293/GLP1R/CRE-LUC cells (HD Biosciences); 30 min at 37° C.; 0.5 mM IBMX, 0.1% BSA; geometric mean where n>=2; read-out: GLP1R cAMP Stimulation DR: EC50 (nM) Method 2 (HDB)
# Experimental: Method 2: Activation of GLP-1 receptor is known to stimulate cyclic AMP (cAMP) production in cells which indicates primary coupling to the Gas subunit of the G protein heterotrimeric complex.
# To optimize functional activity directed toward Gas coupling, a HEK293/CRE-Luc cell line developed by HDB stably expressing the GLP-1 Receptor was used. 200× concentration of compound working solutions were prepared (Agilent Technologies Bravo) with ½log serial dilution in 384-well Echo LDV plate (Labcyte, Cat# LP-0200). […] Seal the plate and incubate at 37° C. with 5% CO2 for 30 min.
# After incubation the cAMP assay signal was generated using cAMP dynamic 2 Kit (Cisbio). 5 µL cAMP-d2 working solution was added to each well, followed with 5 µL Anti-cAMP antibody-cryptate working solution added to each well using ThermoFisher Multidrop Combi. Incubate at room temperature for 1 hour protected from light.
# as §1, §2
# T1 sequence (P43220 24-463): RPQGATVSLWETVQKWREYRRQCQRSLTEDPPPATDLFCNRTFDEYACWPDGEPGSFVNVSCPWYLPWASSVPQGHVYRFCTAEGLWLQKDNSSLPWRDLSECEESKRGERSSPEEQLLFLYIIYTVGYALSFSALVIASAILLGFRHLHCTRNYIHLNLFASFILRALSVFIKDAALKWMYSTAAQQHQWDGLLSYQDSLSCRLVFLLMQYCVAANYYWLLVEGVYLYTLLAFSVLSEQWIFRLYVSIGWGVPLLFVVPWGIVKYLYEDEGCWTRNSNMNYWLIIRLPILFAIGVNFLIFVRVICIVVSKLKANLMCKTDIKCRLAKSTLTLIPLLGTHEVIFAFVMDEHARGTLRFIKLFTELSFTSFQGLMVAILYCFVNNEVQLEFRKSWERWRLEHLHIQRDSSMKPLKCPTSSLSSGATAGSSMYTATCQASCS
EC50 (GLP-1 Receptor [1]),EC50 (GLP-1 Receptor [2]),SMILES
< 0.051 nM,0.0074 nM,"O=C(O)c1ccc2nc(CN3CC=C(c4cccc(OCc5ccc(Cl)cc5F)n4)CC3)n(C[C@@H]3CCO3)c2n1 [Compound 110a, (S)-2-((6-((4-chloro-2-fluorobenzyl)oxy)-3′,6′-dihydro-[2,4′-bipyridin]-1′(2′H)-yl)methyl)-3-(oxetan-2-ylmethyl)-3H-imidazo[4,5-b]pyridine-5-carboxylic acid]"
0.18 nM,0.073 nM,O=C(O)c1ccc2nc(CN3CC=C(c4csc(OCc5ccc(Cl)cc5F)n4)CC3)n(C[C@@H]3CCO3)c2n1 [Compound 111a]
0.26 nM,0.17 nM,"N#Cc1ccc(COc2nc(C3=CCN(Cc4nc5ccc(C(=O)O)nc5n4C[C@@H]4CCO4)CC3)cs2)c(F)c1 [Compound 112a, (S)-2-((4-(2-((4-cyano-2-fluorobenzyl)oxy)thiazol-4-yl)-3,6-dihydropyridin-1 (2H)-yl)methyl)-3-(oxetan-2-ylmethyl)-3H-imidazo[4,5-b]pyridine-5-carboxylic acid]"

# The remaining lines, values behind:
SMILES,EC50 (GLP-1 Receptor [1]),EC50 (GLP-1 Receptor [2])
"O=C(O)c1ccc2nc(Cn3ccc(-c4cccc(OCc5ccc(Cl)cc5F)n4)cc3=O)n(C[C@@H]3CCO3)c2c1 [Compound 107aw, 2-[[4-[6-[(4-chloro-2-fluorophenyl)methoxy]-2-pyridyl]-2-oxo-1-pyridyl]methyl]-3-[[(2S)-oxetan-2-yl]methyl]benzimidazole-5-carboxylic acid]",0.28 nM,0.19 nM
"O=C(O)c1ccc2nc(Cn3ccc(-c4cccc(OCc5ccc(Cl)cc5F)c4)cc3=O)n(C[C@@H]3CCO3)c2n1 [Compound 108aw, 2-[[4-[3-[(4-chloro-2-fluoro-phenyl)methoxy]phenyl]-2-oxo-1-pyridyl]methyl]-3-[[(2S)-oxetan-2-yl]methyl]-imidazo[4,5-b]pyridine-5-carboxylic acid]",5.9 nM,5.7 nM
"O=C(O)c1ccc2nc(COc3cc(-c4cccc(OCc5ccc(Cl)cc5F)n4)c(F)cn3)n(C[C@@H]3CCO3)c2n1 [Compound 109aw, (S)-2-(((6-((4-chloro-2-fluorobenzyl)oxy)-5′-fluoro-[2,4′-bipyridin]-2′-yl)oxy)methyl)-3-(oxetan-2-ylmethyl)-3H-imidazo[4,5-b]pyridine-5-carboxylic acid]",4.8 nM,10 nM
"O=C(O)c1ccc2nc(COc3cc(-c4cccc(OCc5ccc(Cl)cc5F)c4)ccn3)n(C[C@@H]3CCO3)c2n1 [Compound 110aw, 2-[[4-[3-[(4-chloro-2-fluoro-phenyl)methoxy]phenyl]-2-pyridyl]oxymethyl]-3-[[(2S)-oxetan-2-yl]methyl]imidazo[4,5-b]pyridine-5-carboxylic acid]",43 nM,88 nM
"O=C(O)c1ccc2nc(Cc3ccc(-c4cccc(OCc5ccc(Cl)cc5F)n4)cc3)n(C[C@@H]3CCO3)c2n1 [Compound 120aw, 2-[[4-[6-[(4-chloro-2-fluoro-phenyl)methoxy]-2-pyridyl]phenyl]methyl]-3-[[(2S)-oxetan-2-yl]methyl]imidazo[4,5-b]pyridine-5-carboxylic acid]",< 0.051 nM,0.017 nM
